The text below walks through data of publication PMC11375437, “Selective labelling of GBA2 in cells with fluorescent β-D-arabinofuranosyl cyclitol aziridines” (Chemical Science, 2024).

For the assay, the target named is T1, GBA2 (Homo sapiens, UniProt Q9HCG7).
T1 sequence (Q9HCG7 1-927): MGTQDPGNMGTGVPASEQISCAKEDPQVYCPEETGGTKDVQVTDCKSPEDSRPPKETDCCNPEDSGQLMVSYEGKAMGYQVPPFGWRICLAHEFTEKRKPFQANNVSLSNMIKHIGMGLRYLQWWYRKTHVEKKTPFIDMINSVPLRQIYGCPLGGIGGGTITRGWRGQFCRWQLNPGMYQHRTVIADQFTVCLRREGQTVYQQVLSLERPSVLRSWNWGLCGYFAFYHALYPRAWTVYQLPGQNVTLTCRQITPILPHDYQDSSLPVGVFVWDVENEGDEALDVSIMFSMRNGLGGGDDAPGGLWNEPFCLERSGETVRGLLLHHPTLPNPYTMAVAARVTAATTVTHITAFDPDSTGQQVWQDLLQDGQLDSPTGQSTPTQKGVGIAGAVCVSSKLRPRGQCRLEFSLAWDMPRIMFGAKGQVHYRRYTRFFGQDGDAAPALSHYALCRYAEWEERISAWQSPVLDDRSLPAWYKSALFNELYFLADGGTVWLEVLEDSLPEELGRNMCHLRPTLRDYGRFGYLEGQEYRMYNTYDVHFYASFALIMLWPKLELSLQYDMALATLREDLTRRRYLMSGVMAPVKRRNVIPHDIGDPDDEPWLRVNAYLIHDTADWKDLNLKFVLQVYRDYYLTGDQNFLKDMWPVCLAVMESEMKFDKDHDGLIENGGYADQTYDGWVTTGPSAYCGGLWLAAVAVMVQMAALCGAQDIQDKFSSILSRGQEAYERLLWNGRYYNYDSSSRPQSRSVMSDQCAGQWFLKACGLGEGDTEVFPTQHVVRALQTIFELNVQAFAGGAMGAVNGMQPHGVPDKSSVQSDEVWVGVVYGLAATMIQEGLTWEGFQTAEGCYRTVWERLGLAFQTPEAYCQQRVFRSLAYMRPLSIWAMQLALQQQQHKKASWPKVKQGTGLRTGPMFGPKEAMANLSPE
The assay can be described thus: In situ labelling/inactivation in intact HEK293T cells (endogenous GBA1, GBA2/GBA3 OE). The class given is cell-based. Set-up: expressed in transfected cells; host or cells: HEK293T GBA1/GBA2 KO (CRISPR/Cas9), GBA2 overexpressed. The settings on record: ESI Fig. S8B (24 h incubation). As for the experimental part:
We next sought to investigate whether we could identify and localize active GBA2 molecules in human cells using our β-D-Araf aziridine ABPs. […] The lysates were then denatured, their protein content separated by SDS-PAGE and the resulting wet gel slabs scanned for fluorescence. Following this procedure, we observed that all three β-D-Araf ABPs 3–5 enter intact cells, where they react with GBA2, and given the enzyme lifetime (>24 h), also with newly synthesized GBA2 (Fig. 5A, ESI Fig. S8A and B ^†).
Figure S7. Fluorescent gel images of in situ labelling of intact HEK293T cells (GBA1 endogenous and GBA2/GBA3 OE) by arabinofuranosyl cyclitol configured ABPs 3-5, 14 and 20 after 1 h incubation. GAA = Lysosomal α glucosidase (EC 3.2.1.20, CAZy GH31).
Figure S8. […] Intact HEK293T cells were treated with β-D-Araf ABPs for 24 h at 37 °C with 7% CO2, then cells were collected and lysed for labelling studies with or without residual β-glucosidases activity read out. […]
2.8 β-Glucosidase inactivation visualized by competitive ABPP with SDS-PAGE In general, samples containing GBA1, GBA2 or GBA3 (see the exact constitution of these samples in the described case) are first incubated (in vitro or in situ) with the inactivator compounds, subsequently, the fluorescent readout ABPs were added and incubated with the mixture to reveal the residual active β-glucosidase enzymes. […]

Turning to `CC1=CC(C)=[N+]2C1=C(CCCCc1cn(CCCCCCCCN3[C@@H]4[C@H](CO)[C@@H](O)[C@H](O)[C@@H]43)nn1)c1c(C)cc(C)n1[B-]2(F)F` (some centres unmarked) [ABP 3], the “Concentration at which GBA2 is inactivated almost completely in intact cells” value worked out at 100 nM.
The value for `COc1ccc(C2=[N+]3C(=C(CCCCc4cn(CCCCCCCCN5[C@@H]6[C@H](CO)[C@@H](O)[C@H](O)[C@@H]65)nn4)c4ccc(-c5ccc(OC)cc5)n4[B-]3(F)F)C=C2)cc1` (some centres unmarked) [ABP 4] was 100 nM.
